Assay results from US7718394B2, “Methods for diagnosis and monitoring of neurological disease by detection of an encephalotoxin” (priority 2003, dated 2010).
Entries after “also recorded” stand apart in the source; their conditions may differ.

Test: Inactivation of encephalotoxin by nitrous acid, heparin lyases and sulfatases (loss of neurotoxic activity)
Assay type: biochemical
Method: Structural characterization and inactivation of encephalotoxin (isolated by organic extractions, gel filtration, and sequential C18 HPLC from Aβ-stimulated microglial cell line BV2) was performed by various nitrous acid cleavage protocols. […] Traditionally, heparin lyase I acts primarily on heparin-containing GlcNS(1→4)IdoA2S sequences and heparin lyase III on HS primarily at a GlcNAc(1→4)IdoA or GlcNAc(1→4)GlcA sequence.
1 ml of CSF was fractionated by adsorption chromatography, dried under vacuum, and reconstituted in artificial CSF comprising electrolytes, such as NaCl, and glucose. Increasing amounts of fractionated toxin (range 0.1 to 500 ul equivalents of original sample volume) were added to triplicate cultures. Results were plotted as volume vs. % neuron kill (with kill calculated as % loss of immuno-stained hippocampal neurons against untreated control cultures). […] In order to compare different populations, a CSF Neurotoxicity Index was developed to assign scores that reflect level of neurotoxin. This index was calculated as an ED50 (the equivalent CSF volume that yields 50% of the maximal level of neuron killing).

O=NO [nitrous acid]
inactivation of encephalotoxin released by BV2 microglia (encephalotoxin from Aβ-stimulated microglial cell line BV2, FIG. 1A): inactivated; also recorded: eliminated
inactivation of encephalotoxin recovered from lumbar CSF of subject with AD (lumbar CSF, AD, FIG. 1C): inactivated
inactivation of encephalotoxin found in ventricular CSF of AD brain (ventricular CSF of AD brain, FIG. 1B): inactivated
